Molecules are shown by their SMILES.

As a reminder, the IC50 is the concentration needed to halve the response being measured.

For one test, the system named is male rats. Nature of the test: Antagonist effect vis-a-vis the diuretic activity of U-50488, action on diuresis. The settings on record: male rats fasted 16 h; product of Example 1 20 mg/kg SC, U-50488 5 mg/kg, combination 5 + 20 mg/kg; urine collected for one hour. Format: in vivo, rat.
The subject of another test is female mice. Nature of the test: Antagonist effect vis-a-vis the analgesic activity of U-50488, hot plate test with mice. Format: in vivo, mouse. As to conditions: hot plate 56° C., product of Example 1 20 mg/kg SC, U-50488 5 mg/kg SC, combination 5 + 20.
Test [1] addresses T1, kappa opiate receptor (Cavia porcellus, UniProt P41144).
T1 construct: Membrane samples prepared from the cerebellum of guinea pigs; from tissue; host or cells: guinea pig cerebellum membranes
Briefly: Test of the bonding to the kappa opiate receptor in vitro (3H ethylketocyclazocine). Format: binding, guinea pig. As for the experimental part: a) Test of the bonding to the kappa opiate receptor in vitro
Membrane samples prepared from the cerebellum of guinea pigs preserved at -30° C. (optionally for about 30 days) were used.
These samples were suspended in pH 7.7 Tris buffer. Fractions of 2 ml were allocated into hemolysis tubes and 1 nM of 3H ethylketocyclazocine and the product to be studied were added. The product was first tested in triplicate at 5×10^-6 M. When the tested product displaced more than 50% of the radioactivity bonded specifically to the receptor, it was tested again according to a range of 7 doses to determine the dose which inhibited 50% of the radioactivity bonded specifically to the receptor. Thus, the 50% inhibiting concentration was determined.
The non-specific bonding was determined by the addition of product known under the name U-50 488 H (Lahti et al. 1982, Life Sci. Vol. 31, p. 2257) at 10^-5 M in triplicate. Incubation took place at 25° C. for 40 minutes, followed by returning to the water bath at 0° C. for 5 minutes, then vacuum filtering, rinsing with pH 7.7 Tris buffer, and the radioactivity was counted in the presence of a Triton scintillator. The result was expressed directly as the 50% inhibiting concentration (IC50), that is to say as the concentration of studied product, expressed in nM, necessary to displace 50% of the radioactivity specifically bonded to the studied receptor.

Another test deals with T2, mu opiate receptor (Rattus norvegicus, UniProt P33535).
T2 construct: from the brains of rats were used; from tissue; host or cells: rat brain membranes
T2 sequence (P33535 whole entry): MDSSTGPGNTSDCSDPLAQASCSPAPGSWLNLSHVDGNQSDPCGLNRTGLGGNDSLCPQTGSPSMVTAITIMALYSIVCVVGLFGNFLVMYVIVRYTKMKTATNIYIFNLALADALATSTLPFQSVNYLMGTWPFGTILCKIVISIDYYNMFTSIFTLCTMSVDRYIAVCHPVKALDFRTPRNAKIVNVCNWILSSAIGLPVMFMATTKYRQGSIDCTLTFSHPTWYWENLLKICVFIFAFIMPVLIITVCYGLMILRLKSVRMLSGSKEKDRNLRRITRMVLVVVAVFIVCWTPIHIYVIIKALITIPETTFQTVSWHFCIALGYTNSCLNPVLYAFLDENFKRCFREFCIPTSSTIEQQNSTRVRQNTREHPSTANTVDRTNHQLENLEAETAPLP
Briefly: Test of bonding to the mu opiate receptor in vitro (3H DAGO). The settings on record: rat brain membranes, 1 nM 3H DAGO, 25° C. 40 minutes, pH 7.7 Tris buffer; read-out: IC50, displacement of 3H DAGO from mu opiate receptor. Format: binding. On the technique in general: In a radioligand displacement assay an active substance lowers the binding of a labelled ligand.

The next test addresses T3, dopamine receptor (Rattus norvegicus, UniProt P61169).
T3 construct: prepared from the striated bodies of rats were used; from tissue; host or cells: rat striatum membranes
Briefly: Test of bonding to the dopamine receptor in vitro (3H spiroperidol). Format: binding. The settings on record: rat striated bodies membranes, 0.15 nM 3H spiroperidol, pH 7.25 Krebs Tris buffer; read-out: IC50, displacement of 3H spiroperidol from dopamine receptor.

Test [2] deals with T1, kappa opiate receptor. Nature of the test: Test for distinction between agonist and antagonist on the kappa opiate receptor (3H diprenorphine, with or without NaCl and GTP). Format: binding, guinea pig. The settings on record: for IC50: guinea pig cerebellum membranes, 0.3 nM 3H diprenorphine.

T1 sequence (P41144 whole entry): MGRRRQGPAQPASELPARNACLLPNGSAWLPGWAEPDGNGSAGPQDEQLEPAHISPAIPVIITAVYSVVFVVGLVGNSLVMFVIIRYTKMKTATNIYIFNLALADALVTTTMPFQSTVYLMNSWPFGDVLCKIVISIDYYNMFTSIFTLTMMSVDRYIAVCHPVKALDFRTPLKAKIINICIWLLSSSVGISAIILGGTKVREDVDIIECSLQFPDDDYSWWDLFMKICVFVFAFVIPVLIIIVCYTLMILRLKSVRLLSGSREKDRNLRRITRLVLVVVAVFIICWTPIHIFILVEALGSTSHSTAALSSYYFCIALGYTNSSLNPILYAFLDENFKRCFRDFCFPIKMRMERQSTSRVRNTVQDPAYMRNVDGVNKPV
T3 sequence (P61169 whole entry): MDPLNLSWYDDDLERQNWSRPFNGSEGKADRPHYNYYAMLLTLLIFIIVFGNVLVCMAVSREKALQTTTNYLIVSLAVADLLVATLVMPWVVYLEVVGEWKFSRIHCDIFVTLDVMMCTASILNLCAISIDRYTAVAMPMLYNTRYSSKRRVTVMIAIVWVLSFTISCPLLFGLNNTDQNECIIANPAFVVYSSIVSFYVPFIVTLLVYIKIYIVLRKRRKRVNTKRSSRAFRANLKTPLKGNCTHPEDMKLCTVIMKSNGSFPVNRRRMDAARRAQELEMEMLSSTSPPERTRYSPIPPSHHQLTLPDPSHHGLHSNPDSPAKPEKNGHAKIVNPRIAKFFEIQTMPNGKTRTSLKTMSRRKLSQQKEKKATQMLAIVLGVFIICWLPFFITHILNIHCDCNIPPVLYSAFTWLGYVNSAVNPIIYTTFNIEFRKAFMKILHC
Experimental for dopamine receptor: (optionally for about 30 days) and prepared from the striated bodies of rats were used. The samples were suspended in pH 7.25 Krebs Tris buffer. […] The product was first tested at 5×10^-6 M, in triplicate. […] Incubation took place at 27° C. for 20 minutes, followed by returning to the water bath at 0° C. for 5 minutes, then vacuum filtering, rinsing with pH 7.7 Tris buffer, and the radioactivity was counted in the presence of a Triton scintillator.

Regarding `CCCCCN(CCc1ccccc1)CCc1cccc(O)c1` [Product of example 1, N-pentyl-N-phenethyl-3-hydroxyphenethylamine], in the test on male rats, the “Volume of urine excreted in 1 hour, m ± esm” value was determined as 0.0067 ± 0.0002 L/kg. For the same molecule, in the test with female mice (30 minutes after injection), the “Reaction time, m ± esm, 30 mn” value is 4.7 ± 0.6 s. Further, the “Reaction time, m ± esm, 0 mn” value in the test on female mice (initial time (0 mn)) is recorded as 5.1 ± 0.1 s. The “Affinity for kappa, mu and dopamine receptors (conclusion)” value on kappa opiate receptor [1] (conclusion from the kappa, mu and dopamine bonding tests) is “only has an affinity for the kappa opiate receptor”. In addition, the half-maximal inhibitory concentration (IC50) at kappa opiate receptor [1] (guinea pig cerebellum membranes, 1 nM 3H ethylketocyclazocine, 25° C. 40 minutes, pH 7.7 Tris buffer, read-out: IC50, displacement of 3H ethylketocyclazocine from kappa opiate receptor) worked out at 57 nM; at mu opiate receptor, 840 nM; at dopamine receptor, 10600 nM; at kappa opiate receptor [2] (NaCl 100 mM, GTP 50 uM, read-out: IC50 in the presence of GTP and NaCl), 135 nM; at kappa opiate receptor [2] (without NaCl and GTP, read-out: IC50 in the absence of GTP and NaCl), 43 nM. For the same molecule, at kappa opiate receptor [2] (conclusion from IC50 with and without NaCl/GTP), the “Agonist or antagonist character on the kappa receptor” value is reported as “antagonist product of the kappa receptor”.

(Values after US5141962A, “Amine compounds” (Roussel Uclaf, priority 1989, dated 1992).)
